Assay results: ChEMBL document CHEMBL1138873, “A novel antiproliferative agent, phenylpyridineylbutenol, isolated from Streptomyces sp” (Bioorg Med Chem Lett, 2006)

Assays:
Format in all cases: functional, cell-based
[1] = system: HepG2; experiment: Antiproliferative activity against human HepG2 by MTT assay
[2] = system: AGS; experiment: Antiproliferative activity against human AGS by MTT assay
[3] = system: A549; experiment: Antiproliferative activity against human A549 by MTT assay
[4] = system: HeLa; experiment: Antiproliferative activity against human HeLa by MTT assay

An IC50 [1] of 1600 µM, an IC50 [2] of 1980 µM and an IC50 [3] of 1130 µM were found for OC/C=C(\Cc1ccccc1)c1ccccn1 in this work. It also gave an IC50 [4] of 1380 µM.
